Experimental data as given in article PMC9798004 (Frontiers in Psychiatry, 2022).
Entries after “also recorded” stand apart in the source; their conditions may differ. Read-outs that look alike come from different tables or passages of the source.

How the values were obtained:
Format in all cases: cell-based
ADRA2A = molecular target: T1, ADRA2A (Homo sapiens, UniProt P08913); test: PathHunter β-arrestin assay; conditions: antagonist mode vs EC80 of control agonist, 10-point curve
T1 construct: host or cells: CHO

ADRA2B = ADRA2B (Homo sapiens, UniProt P18089)
Chain of ADRA2B (P18089 whole entry): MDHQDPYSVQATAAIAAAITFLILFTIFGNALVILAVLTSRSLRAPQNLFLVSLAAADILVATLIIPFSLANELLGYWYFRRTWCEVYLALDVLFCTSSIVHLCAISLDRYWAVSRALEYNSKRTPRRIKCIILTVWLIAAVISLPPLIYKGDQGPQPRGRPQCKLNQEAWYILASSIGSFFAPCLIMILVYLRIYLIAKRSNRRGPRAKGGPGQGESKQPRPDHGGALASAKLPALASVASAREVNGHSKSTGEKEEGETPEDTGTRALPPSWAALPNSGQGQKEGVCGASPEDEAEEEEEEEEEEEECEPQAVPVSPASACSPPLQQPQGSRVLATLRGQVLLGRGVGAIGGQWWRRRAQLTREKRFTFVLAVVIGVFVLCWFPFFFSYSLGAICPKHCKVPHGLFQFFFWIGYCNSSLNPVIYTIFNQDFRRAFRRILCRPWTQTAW

ADRA2C = molecular target: T2, ADRA2C (Homo sapiens, UniProt P18825); test: PathHunter β-arrestin assay
T2 sequence (P18825 1-462): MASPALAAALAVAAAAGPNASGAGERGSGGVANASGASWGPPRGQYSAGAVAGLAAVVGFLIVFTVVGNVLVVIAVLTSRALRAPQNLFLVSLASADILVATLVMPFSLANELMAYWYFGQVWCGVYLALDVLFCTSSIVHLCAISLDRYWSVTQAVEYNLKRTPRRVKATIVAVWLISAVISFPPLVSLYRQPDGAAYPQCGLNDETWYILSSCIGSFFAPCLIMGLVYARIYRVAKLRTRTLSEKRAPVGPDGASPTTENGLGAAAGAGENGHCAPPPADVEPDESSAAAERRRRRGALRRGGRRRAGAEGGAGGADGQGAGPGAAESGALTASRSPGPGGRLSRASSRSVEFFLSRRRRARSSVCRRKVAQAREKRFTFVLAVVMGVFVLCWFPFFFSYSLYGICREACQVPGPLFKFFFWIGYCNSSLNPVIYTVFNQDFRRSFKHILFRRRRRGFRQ

CALCRL-RAMP2 = CALCRL-RAMP2 (Homo sapiens, UniProt O60895+Q16602); test: PathHunter β-arrestin assay; conditions: antagonist mode vs EC80 of control agonist, 10-point curve
Chain of CALCRL-RAMP2 (Q16602 23-461): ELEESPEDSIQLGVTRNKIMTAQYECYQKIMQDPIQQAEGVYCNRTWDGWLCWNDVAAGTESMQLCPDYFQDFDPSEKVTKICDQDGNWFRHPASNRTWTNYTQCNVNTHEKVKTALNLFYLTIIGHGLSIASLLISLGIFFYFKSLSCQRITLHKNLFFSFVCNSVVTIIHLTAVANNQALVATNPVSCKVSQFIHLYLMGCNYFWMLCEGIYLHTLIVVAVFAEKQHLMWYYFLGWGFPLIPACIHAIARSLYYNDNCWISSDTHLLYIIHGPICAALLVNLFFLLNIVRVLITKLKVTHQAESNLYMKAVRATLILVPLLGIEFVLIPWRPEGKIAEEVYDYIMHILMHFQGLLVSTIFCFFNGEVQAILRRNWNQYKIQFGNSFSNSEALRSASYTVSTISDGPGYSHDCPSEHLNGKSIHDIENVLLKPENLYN
Chain of CALCRL-RAMP2 (O60895 43-175 partner): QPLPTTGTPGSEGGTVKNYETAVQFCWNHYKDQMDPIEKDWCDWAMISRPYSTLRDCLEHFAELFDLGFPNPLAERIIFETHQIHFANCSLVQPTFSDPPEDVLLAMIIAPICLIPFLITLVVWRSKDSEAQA

CALCR-RAMP2 = CALCR-RAMP2 (Homo sapiens, UniProt O60895+P30988); test: PathHunter β-arrestin assay; conditions: antagonist mode vs EC80 of control agonist, 10-point curve
CHRM3 = CHRM3 (Homo sapiens, UniProt P20309)
Chain of CHRM3 (P20309 whole entry): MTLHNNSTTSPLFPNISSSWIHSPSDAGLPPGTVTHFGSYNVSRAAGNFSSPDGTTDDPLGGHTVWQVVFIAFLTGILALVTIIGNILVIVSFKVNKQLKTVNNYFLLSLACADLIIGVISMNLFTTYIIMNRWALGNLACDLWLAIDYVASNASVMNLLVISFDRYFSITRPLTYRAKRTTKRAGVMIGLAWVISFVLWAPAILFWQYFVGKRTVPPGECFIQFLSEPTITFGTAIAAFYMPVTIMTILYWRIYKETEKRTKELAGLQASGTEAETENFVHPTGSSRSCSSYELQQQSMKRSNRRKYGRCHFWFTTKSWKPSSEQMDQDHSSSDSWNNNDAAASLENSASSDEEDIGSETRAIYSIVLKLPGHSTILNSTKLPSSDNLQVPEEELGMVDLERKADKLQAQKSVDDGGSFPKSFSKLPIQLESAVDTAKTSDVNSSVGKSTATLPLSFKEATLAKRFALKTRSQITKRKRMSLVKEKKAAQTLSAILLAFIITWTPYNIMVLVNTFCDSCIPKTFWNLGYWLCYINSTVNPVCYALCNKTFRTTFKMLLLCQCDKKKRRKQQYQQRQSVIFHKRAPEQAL

CNR1 (CB1) = molecular target: T3, CNR1 (CB1) (Homo sapiens, UniProt P21554); test: PathHunter β-arrestin assay; conditions: agonist mode
T3 construct: host or cells: CHO
T3 sequence (P21554 whole entry): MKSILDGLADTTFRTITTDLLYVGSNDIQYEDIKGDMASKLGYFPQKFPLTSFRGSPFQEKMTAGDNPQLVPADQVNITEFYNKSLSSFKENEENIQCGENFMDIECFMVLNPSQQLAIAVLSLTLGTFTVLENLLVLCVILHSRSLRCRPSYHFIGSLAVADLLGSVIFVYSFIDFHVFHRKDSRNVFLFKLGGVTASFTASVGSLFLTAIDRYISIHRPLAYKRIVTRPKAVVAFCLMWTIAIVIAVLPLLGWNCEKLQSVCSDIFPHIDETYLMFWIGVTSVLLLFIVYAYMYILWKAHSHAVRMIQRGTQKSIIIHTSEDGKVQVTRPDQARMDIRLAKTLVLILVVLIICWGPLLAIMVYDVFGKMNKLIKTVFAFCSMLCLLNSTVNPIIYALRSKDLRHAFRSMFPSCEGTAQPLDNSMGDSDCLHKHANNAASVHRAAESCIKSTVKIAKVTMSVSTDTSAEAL

DRD2L = DRD2L (Homo sapiens, UniProt P14416); test: PathHunter β-arrestin assay; conditions: antagonist mode, up to 30 μM
Chain of DRD2L (P14416 whole entry): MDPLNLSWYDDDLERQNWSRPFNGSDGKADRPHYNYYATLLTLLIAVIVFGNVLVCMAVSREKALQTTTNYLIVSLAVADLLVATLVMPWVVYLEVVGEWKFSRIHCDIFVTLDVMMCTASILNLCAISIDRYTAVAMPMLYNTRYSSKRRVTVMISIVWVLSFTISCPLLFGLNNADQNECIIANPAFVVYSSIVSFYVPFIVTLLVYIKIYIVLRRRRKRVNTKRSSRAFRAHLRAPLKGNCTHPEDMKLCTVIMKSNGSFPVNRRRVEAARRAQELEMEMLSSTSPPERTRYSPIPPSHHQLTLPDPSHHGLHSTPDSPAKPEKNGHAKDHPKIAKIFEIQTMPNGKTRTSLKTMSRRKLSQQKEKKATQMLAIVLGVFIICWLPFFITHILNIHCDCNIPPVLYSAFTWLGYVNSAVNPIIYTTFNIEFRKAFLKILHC

DRD5 = DRD5 (Homo sapiens, UniProt P21918); test: PathHunter β-arrestin assay; conditions: antagonist mode vs EC80 of control agonist, 10-point curve
Chain of DRD5 (P21918 whole entry): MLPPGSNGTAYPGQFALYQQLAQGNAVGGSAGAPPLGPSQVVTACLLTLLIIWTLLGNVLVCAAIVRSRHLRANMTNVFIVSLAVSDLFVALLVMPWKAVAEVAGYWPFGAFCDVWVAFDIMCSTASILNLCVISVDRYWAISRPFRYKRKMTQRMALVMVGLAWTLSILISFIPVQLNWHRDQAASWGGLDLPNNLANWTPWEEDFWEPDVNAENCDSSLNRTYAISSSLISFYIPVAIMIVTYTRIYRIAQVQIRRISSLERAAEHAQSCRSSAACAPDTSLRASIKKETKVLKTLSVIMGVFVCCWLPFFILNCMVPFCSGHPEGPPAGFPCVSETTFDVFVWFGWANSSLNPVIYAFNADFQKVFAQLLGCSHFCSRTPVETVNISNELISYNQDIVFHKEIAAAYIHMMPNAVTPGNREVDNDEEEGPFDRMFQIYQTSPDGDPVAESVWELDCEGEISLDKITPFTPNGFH

GIPR = molecular target: T4, GIPR (Homo sapiens, UniProt P48546); test: PathHunter β-arrestin assay; conditions: antagonist mode, up to 30 μM
T4 construct: purchased Eurofins DiscoverX (PathHunter gpcrMAX)
T4 sequence (P48546 22-466): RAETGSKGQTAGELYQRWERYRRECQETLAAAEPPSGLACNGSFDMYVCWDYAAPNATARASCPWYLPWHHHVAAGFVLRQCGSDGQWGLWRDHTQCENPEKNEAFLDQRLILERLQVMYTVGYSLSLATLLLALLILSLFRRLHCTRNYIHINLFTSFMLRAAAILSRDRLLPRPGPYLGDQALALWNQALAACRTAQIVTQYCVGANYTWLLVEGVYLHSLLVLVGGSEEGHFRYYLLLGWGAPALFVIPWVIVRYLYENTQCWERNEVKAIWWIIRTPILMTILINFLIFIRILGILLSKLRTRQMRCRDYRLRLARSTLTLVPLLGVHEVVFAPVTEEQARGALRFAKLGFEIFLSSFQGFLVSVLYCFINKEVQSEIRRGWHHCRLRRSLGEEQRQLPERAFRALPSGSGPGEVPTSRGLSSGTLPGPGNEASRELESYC

HCRTR2 = HCRTR2 (Homo sapiens, UniProt O43614); test: PathHunter β-arrestin assay; conditions: antagonist mode vs EC80 of control agonist, 10-point curve
HRH1 = HRH1 (Homo sapiens, UniProt P35367)
Chain of HRH1 (P35367 whole entry): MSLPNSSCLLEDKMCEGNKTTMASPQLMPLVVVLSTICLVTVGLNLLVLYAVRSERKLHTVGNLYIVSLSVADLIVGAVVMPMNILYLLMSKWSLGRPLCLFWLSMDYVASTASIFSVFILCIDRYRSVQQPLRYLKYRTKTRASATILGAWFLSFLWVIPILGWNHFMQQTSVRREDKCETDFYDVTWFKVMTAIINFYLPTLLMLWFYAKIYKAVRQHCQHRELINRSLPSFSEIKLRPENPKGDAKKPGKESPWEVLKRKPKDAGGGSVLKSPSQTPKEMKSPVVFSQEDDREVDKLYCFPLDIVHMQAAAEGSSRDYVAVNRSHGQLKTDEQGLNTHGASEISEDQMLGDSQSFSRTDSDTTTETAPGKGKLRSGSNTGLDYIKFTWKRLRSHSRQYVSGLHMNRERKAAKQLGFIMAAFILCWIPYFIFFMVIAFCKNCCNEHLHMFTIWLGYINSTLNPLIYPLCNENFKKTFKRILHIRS

MC3R = MC3R (Homo sapiens, UniProt P41968); test: PathHunter β-arrestin assay; conditions: antagonist mode vs EC80 of control agonist, 10-point curve
Chain of MC3R (P41968 whole entry): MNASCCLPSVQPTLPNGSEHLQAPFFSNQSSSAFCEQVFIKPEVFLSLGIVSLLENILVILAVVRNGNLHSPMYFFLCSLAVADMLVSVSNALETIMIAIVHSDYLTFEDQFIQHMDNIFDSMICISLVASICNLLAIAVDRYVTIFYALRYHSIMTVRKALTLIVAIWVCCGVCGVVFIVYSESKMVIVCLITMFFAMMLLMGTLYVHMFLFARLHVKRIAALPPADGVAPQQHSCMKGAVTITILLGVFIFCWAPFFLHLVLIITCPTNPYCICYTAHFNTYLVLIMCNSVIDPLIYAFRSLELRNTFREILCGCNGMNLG

MCHR1 = MCHR1 (Homo sapiens, UniProt Q99705); test: PathHunter β-arrestin assay; conditions: antagonist mode, up to 30 μM
Chain of MCHR1 (Q99705 whole entry): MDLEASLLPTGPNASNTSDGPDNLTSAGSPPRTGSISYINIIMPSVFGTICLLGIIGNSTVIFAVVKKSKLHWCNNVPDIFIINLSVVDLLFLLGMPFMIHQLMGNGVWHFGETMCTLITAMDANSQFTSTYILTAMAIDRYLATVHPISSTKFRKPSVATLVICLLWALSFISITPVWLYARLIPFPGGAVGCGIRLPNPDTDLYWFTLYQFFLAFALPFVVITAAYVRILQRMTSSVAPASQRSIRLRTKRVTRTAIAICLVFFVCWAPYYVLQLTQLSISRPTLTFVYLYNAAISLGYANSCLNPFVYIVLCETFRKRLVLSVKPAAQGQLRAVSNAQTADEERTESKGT

OXTR = OXTR (Homo sapiens, UniProt P30559); test: PathHunter β-arrestin assay; conditions: antagonist mode vs EC80 of control agonist, 10-point curve
UTR2 = UTR2 (Homo sapiens, UniProt Q9UKP6); test: PathHunter β-arrestin assay; conditions: antagonist mode, up to 30 μM
168 GPCRs = test: gpcrMAX panel 30 μM single-point β-arrestin screen (agonist and antagonist mode); conditions: antagonist mode
Protocol: Activity, or a “hit,” was defined as >30% in agonist mode, >35% in antagonist mode, or >50% in the orphan screen (agonist mode). Where these criteria were met, signal-to-noise (S/N) and coefficient of variation (CoV) were also calculated, defined as: […]
Agonist mode Antagonist modeS/N Compound mean/Baseline mean+(Baseline SD×3) EC80 mean/Compound-(Compound SD× 3)CoV Baseline mean/Compound mean-(Compound SD× 3) Compound mean/EC80 mean-(EC80 SD × 3)
Hits were verified to have S/N>1 and a CoV <1. Thresholds and subsequent validation were guided by Eurofins. Descriptive data (means ± S.E.M) was generated in Graphpad Prism (version 9.2.0, San Diego, CA).

[1] = tested on: GPCR off-targets with >5-fold difference in S/N and CoV (n = 36); test: Follow-up concentration-response β-arrestin assays, panel of hits
Protocol: Follow up experiments were prioritized based on the difference between S/N and CoV. Targets with a >5-fold difference between S/N and CoV were investigated for their potential contribution to the AMB-FUBINACA toxidrome with 10-point concentration-response curves generated in technical replicate (range 1.5–30 μM) using the EC80 of the relevant agonist, where applicable in antagonist mode. Simultaneous agonist and antagonist curves were run in parallel to ensure reliability of the assay (see Supplementary Table 2), with both RC50 and signal to background aligning with historical averages, and Z' >0.5. RC50 was estimated using a four-parameter fit (CBIS Data Analysis Suite, ChemInnovation, San Diego, CA) on normalized data.

[2] = tested on: AtT20 cells expressing human CB1 (hCB1); test: LDH release cytotoxicity assay; conditions: 30 μM
Protocol: AtT20 cells expressing either human CB1 (hCB1) or CB2 (hCB2) receptors or wildtype (WT) were grown to confluence in T75 cm^2 flasks in Dulbecco's modified eagle medium containing 10% fetal bovine serum, 100 U penicillin/streptomycin, and 80 μg/mL hygromicyin (Sigma-Aldrich/Merck; Castle Hill, NSW, Australia). Cells were plated in 96-well-microplates at 30,000 cells per well and allowed to adhere overnight in 5% CO2. The following morning, cells were treated with either vehicle (0.1% DMSO; negative control), 30 μM Δ^9-THC, or 30 μM AMB-FUBINACA. At 1 or 6 h, the amount of lactate dehydrogenase in the cell media was tested, and compared with positive control (lysed cells) as per manufacturer's instructions (Dojindo Molecular Technologies, Inc.; Rockville, MD, USA), with readings performed on a Clariostar Plus plate reader (BMG Labtech, Mornington, VIC, Australia). Experiments were performed in triplicate. In order to measure any accumulating LDH, media was not changed after initial incubation. Data is represented as means ± S.E.M. A two-way ANOVA with was performed on the data at each time point, with Tukey's multiple comparison test (α = 0.05). A p < 0.05 was considered statistically significant.

COC(=O)[C@@H](NC(=O)c1nn(Cc2ccc(F)cc2)c2ccccc12)C(C)C [AMB-FUBINACA]
IC50 (ADRA2A): 12.1 µM
IC50 (ADRA2B): 2.29 µM
inhibitory activity at lower concentrations (ADRA2B; antagonist mode, 1 μM): appreciable inhibitory activity
IC50 (ADRA2C; antagonist mode vs EC80 of control agonist, 10-point curve): 7.3 µM
inhibitory activity at lower concentrations (ADRA2C; antagonist mode, 1 μM): appreciable inhibitory activity
maximum inhibition (ADRA2C; antagonist mode, concentration-response up to 30 μM): 63.11%
IC50 (CALCRL-RAMP2): 10.1 µM
IC50 (CALCR-RAMP2): 10.8 µM
IC50 (CHRM3): 6.96 µM
response of CB1-expressing cells at high concentration (CNR1 (CB1); 30 μM, response decreased above 1 μM): very little activity remaining at 30 μM
EC50 (CNR1 (CB1); data above 1 μM excluded from curve fitting): 0.0426 µM
inhibitory activity in concentration-response (DRD2L): Activity was only observed at the highest concentration (30 μM); also recorded: only inhibited at the highest 30 μM concentration
IC50 (DRD5): 10.7 µM
inhibitory activity in concentration-response (GIPR): Activity was only observed at the highest concentration (30 μM)
IC50 (HCRTR2): 12.7 µM
IC50 (HRH1): 1.42 µM
inhibitory activity at lower concentrations (HRH1; antagonist mode, 1 μM): appreciable inhibitory activity
IC50 (MC3R): 6.68 µM
inhibitory activity in concentration-response (MCHR1): Activity was only observed at the highest concentration (30 μM); also recorded: only inhibited at the highest 30 μM concentration
IC50 (OXTR): 12.8 µM
inhibitory activity in concentration-response (UTR2): did not produce any clear activity
mean inhibition 30 μM, targets with >5-fold difference in S/N and CoV (n = 36) (168 GPCRs): 97.00 ± 2.54%
mean inhibition of targets inhibited above 35% threshold (168 GPCRs): 81.16%
number of off-targets inhibited (>35%) (168 GPCRs): inhibited the greatest number of targets
IC50 ([1]; antagonist mode (Figure 4), read-out: potencies at targets other than CB1): > 1 µM
IC50 ([1]; antagonist mode vs EC80 agonist, concentrations up to 30 μM, read-out: IC50 at 12 receptors (Figure 5)): > 30 µM
LDH in cell media, normalized to total LDH ([2]; 1 h): 17.09 ± 7.03%
LDH increase compared with vehicle ([2]; 6 h): not observed
